Data taken from patent US5064811A, “De-mannosyl teicoplanin derivatives” (Gruppo LePetit S.p.A., priority 1987, dated 1991).

Key:
Staph. aureus L165 = experiment: MIC, standard broth dilution test; type: cell-based, Staphylococcus aureus; conditions: Isosensitest broth, 24 h
[1] = test system: Staph. epider midis L147 ATCC 12228 (coagulase negative); experiment: MIC, standard broth dilution test; type: cell-based, Staphylococcus epidermidis; conditions: Isosensitest broth, 24 h; inoculum about 10^4-10^5 cfu/ml
Strep. pyogenes L49 C203 = experiment: MIC, standard broth dilution test; type: cell-based, Streptococcus pyogenes; conditions: Todd-Hewitt broth, 24 h; inoculum about 10^4-10^5 cfu/ml
[2] = test system: Strep. pneumoniae L44 UC41; experiment: MIC, standard broth dilution test; type: cell-based, Streptococcus pneumoniae; conditions: Todd-Hewitt broth, 24 h; inoculum about 10^4-10^5 cfu/ml
[3] = test system: Strep. faecalis L149 ATCC 7080; experiment: MIC, standard broth dilution test; type: cell-based, Streptococcus faecalis; conditions: Isosensitest broth, 24 h; inoculum about 10^4-10^5 cfu/ml
[4] = test system: Strep. mitis L796 (clinical isolate); experiment: MIC, standard broth dilution test; type: cell-based, Streptococcus mitis; conditions: Todd-Hewitt broth, 24 h; inoculum about 10^4-10^5 cfu/ml
[5] = test system: Neisseria gonorrhoeae L997 ISM68/126; experiment: MIC, standard broth dilution test; type: cell-based; conditions: GC base broth +1% Isovitalex, 48 h, CO2-enriched atmosphere; inoculum about 10^4-10^5 cfu/ml
[6] = test system: Haemophilus influenzae L 970 type b ATCC 19418; experiment: MIC, standard broth dilution test; type: cell-based; conditions: Brain Heart broth +1% Supplement C, 48 h; inoculum about 10^4-10^5 cfu/ml
[7] = test system: Escherichia coli L47 SKF 12140; experiment: MIC, standard broth dilution test; type: cell-based; conditions: Isosensitest broth, 24 h; inoculum about 10^4-10^5 cfu/ml
[8] = test system: Proteus vulgaris L79 X19H ATCC881; type: cell-based; conditions: Isosensitest broth, 24 h (Gram-negative bacteria); inoculum about 10^4-10^5 cfu/ml
[9] = test system: Pseudomonas aeruginosa L4 ATCC10145; experiment: MIC, standard broth dilution test; type: cell-based; conditions: Isosensitest broth, 24 h (Gram-negative bacteria); inoculum about 10^4-10^5 cfu/ml
[10] = test system: Staph. haemolyticus L602 (clinical isolate); experiment: MIC, standard broth dilution test; type: cell-based, Staphylococcus haemolyticus; conditions: Isosensitest broth, 24 h; inoculum about 10^4-10^5 cfu/ml
[11] = Staph. aureus (30% bovine serum)
[12] = Staph. aureus L165, inoculum about 10^4-10^5 cfu/ml

| Structure (SMILES) | M.I.C. (Staph. aureus L165; Staph. aureus (10^6 cfu/ml)) [microgram/ml] | M.I.C. (Staph. aureus L165; [11]) [microgram/ml] | M.I.C. (Staph. aureus L165; [12]) [microgram/ml] | M.I.C. [1] [microgram/ml] | M.I.C. (Strep. pyogenes L49 C203) [microgram/ml] | M.I.C. [2] [microgram/ml] | M.I.C. [3] [microgram/ml] | M.I.C. [4] [microgram/ml] | M.I.C. [5] [microgram/ml] | M.I.C. [6] [microgram/ml] | M.I.C. [7] [microgram/ml] | M.I.C. [8] [microgram/ml] | M.I.C. [9] [microgram/ml] | M.I.C. [10] [microgram/ml] |
| --- | --- | --- | --- | --- | --- | --- | --- | --- | --- | --- | --- | --- | --- | --- |
| CC(=O)N[C@H]1[C@H](OC2c3ccc(c(Cl)c3)Oc3cc4cc(c3O[C@@H]3O[C@H](CO)[C@@H](O)[C@H](O)[C@H]3NC(=O)CCCCCCC(C)C)Oc3ccc(cc3Cl)CC3NC(=O)C(N)c5ccc(O)c(c5)Oc5cc(O)cc(c5)C(NC3=O)C(=O)NC4C(=O)NC3C(=O)NC2C(=O)NC(C(=O)O)c2cc(O)cc(O)c2-c2cc3ccc2O)O[C@H](CO)[C@@H](O)[C@@H]1O (some centres unmarked) [DM-TA2-2, de-mannosyl teicoplanin complex component 2] | 0.125 | 0.5 | 0.063 | 0.063 | 0.063 | 0.063 | 0.063 | 0.063 | 32 | 64 | > 128 | > 128 | > 128 | 0.5 |
| CCCCCCCCCC(=O)N[C@H]1[C@H](Oc2c3cc4cc2Oc2ccc(cc2Cl)C(O[C@@H]2O[C@H](CO)[C@@H](O)[C@H](O)[C@H]2NC(C)=O)C2NC(=O)C(NC(=O)C4NC(=O)C4NC(=O)C(Cc5ccc(c(Cl)c5)O3)NC(=O)C(N)c3ccc(O)c(c3)Oc3cc(O)cc4c3)c3ccc(O)c(c3)-c3c(O)cc(O)cc3C(C(=O)O)NC2=O)O[C@H](CO)[C@@H](O)[C@@H]1O (some centres unmarked) [DM-TA2-3, de-mannosyl teicoplanin complex component 3] | 0.125 | 0.5 | 0.063 | 0.063 | 0.063 | 0.063 | 0.063 | 0.063 | 32 | 64 | > 128 | > 128 | 128 | 0.5 |
| CCC(C)CCCCCCC(=O)N[C@H]1[C@H](Oc2c3cc4cc2Oc2ccc(cc2Cl)C(O[C@@H]2O[C@H](CO)[C@@H](O)[C@H](O)[C@H]2NC(C)=O)C2NC(=O)C(NC(=O)C4NC(=O)C4NC(=O)C(Cc5ccc(c(Cl)c5)O3)NC(=O)C(N)c3ccc(O)c(c3)Oc3cc(O)cc4c3)c3ccc(O)c(c3)-c3c(O)cc(O)cc3C(C(=O)O)NC2=O)O[C@H](CO)[C@@H](O)[C@@H]1O (some centres unmarked) [DM-TA2-4, de-mannosyl teicoplanin complex component 4] | 0.25 | 0.5 | 0.125 | 0.063 | 0.063 | 0.063 | 0.063 | 0.125 | 32 | 64 | > 128 | > 128 | > 128 | 0.5 |
| CC(=O)N[C@H]1[C@H](OC2c3ccc(c(Cl)c3)Oc3cc4cc(c3O[C@@H]3O[C@H](CO)[C@@H](O)[C@H](O)[C@H]3NC(=O)CCCCCCCC(C)C)Oc3ccc(cc3Cl)CC3NC(=O)C(N)c5ccc(O)c(c5)Oc5cc(O)cc(c5)C(NC3=O)C(=O)NC4C(=O)NC3C(=O)NC2C(=O)NC(C(=O)O)c2cc(O)cc(O)c2-c2cc3ccc2O)O[C@H](CO)[C@@H](O)[C@@H]1O (some centres unmarked) [DM-TA2-5, de-mannosyl teicoplanin complex component 5] | 0.125 | 0.5 | 0.063 | 0.063 | 0.063 | 0.063 | 0.063 | 0.063 | 32 | 32 | > 128 | > 128 | > 128 | 0.25 |
